Calls of active or inactive are those of the source. The rule behind the calls is not given here.
Assays:
C3H 10T1/2 [1] = test: Cytotoxicity against mouse C3H10T1/2 cells assessed as reduction in cell viability at 1 to 5 uM after 24 hrs by MTT assay; type: cell-based; conditions: c3h 10t1/2, 24 h
MC3T3-E1 [2] = test: Cytotoxicity against mouse MC3T3-E1 cells assessed as reduction in cell viability at 1 to 5 uM after 24 hrs by MTT assay; type: cell-based; conditions: mc3t3-e1, 24 h
C3H 10T1/2 [3] = test: Cytotoxicity against mouse C3H10T1/2 cells assessed as reduction in cell viability at >10 uM after 24 hrs by MTT assay; type: cell-based; conditions: c3h 10t1/2, 24 h
MC3T3-E1 [4] = test: Cytotoxicity against mouse MC3T3-E1 cells assessed as reduction in cell viability at >10 uM after 24 hrs by MTT assay; type: cell-based; conditions: mc3t3-e1, 24 h
C3H 10T1/2 [5] = test: Induction of osteoblast differentiation in mouse C3H10T1/2 cells assessed as increase in Id1 mRNA expression at 5 uM after 2 days by RT-PCR analysis; type: functional, cell-based
C3H 10T1/2 [6] = test: Induction of osteoblast differentiation in mouse C3H10T1/2 cells assessed as increase in Dlx5 mRNA expression at 5 uM after 2 days by RT-PCR analysis; type: functional, cell-based
C3H 10T1/2 [7] = test: Induction of osteoblast differentiation in mouse C3H10T1/2 cells assessed as increase in Runx2 mRNA expression at 5 uM after 2 days by RT-PCR analysis; type: functional, cell-based
C3H 10T1/2 [8] = test: Induction of osteoblast differentiation in mouse C3H10T1/2 cells assessed as increase in Id1 mRNA expression at 5 uM after 2 days by qPCR analysis; type: functional, cell-based
C3H 10T1/2 [9] = test: Induction of osteoblast differentiation in mouse C3H10T1/2 cells assessed as increase in Dlx5 mRNA expression at 5 uM after 2 days by qPCR analysis; type: functional, cell-based
C3H 10T1/2 [10] = test: Induction of osteoblast differentiation in mouse C3H10T1/2 cells assessed as increase in Runx2 mRNA expression at 5 uM after 2 days by qPCR analysis; type: functional, cell-based
MC3T3-E1 [11] = test: Induction of osteoblast differentiation in mouse MC3T3-E1 cells assessed as increase in Id1 mRNA expression at 5 uM after 2 days by RT-PCR analysis; type: functional, cell-based
MC3T3-E1 [12] = test: Induction of osteoblast differentiation in mouse MC3T3-E1 cells assessed as increase in Dlx5 mRNA expression at 5 uM after 2 days by RT-PCR analysis; type: functional, cell-based
MC3T3-E1 [13] = test: Induction of osteoblast differentiation in mouse MC3T3-E1 cells assessed as increase in Runx2 mRNA expression at 5 uM after 2 days by RT-PCR analysis; type: functional, cell-based
MC3T3-E1 [14] = test: Induction of osteoblast differentiation in mouse MC3T3-E1 cells assessed as increase in Id1 mRNA expression at 5 uM after 2 days by qPCR analysis; type: functional, cell-based
MC3T3-E1 [15] = test: Induction of osteoblast differentiation in mouse MC3T3-E1 cells assessed as increase in Dlx5 mRNA expression at 5 uM after 2 days by qPCR analysis; type: functional, cell-based
MC3T3-E1 [16] = test: Induction of osteoblast differentiation in mouse MC3T3-E1 cells assessed as increase in Runx2 mRNA expression at 5 uM after 2 days by qPCR analysis; type: functional, cell-based
C3H 10T1/2 [17] = test: Induction of osteoblast differentiation in mouse C3H10T1/2 cells assessed as increase in Runx2 protein level at 5 uM after 2 days by Western blot analysis; type: functional, cell-based
MC3T3-E1 [18] = test: Induction of osteoblast differentiation in mouse MC3T3-E1 cells assessed as increase in Runx2 protein level at 5 uM after 2 days by Western blot analysis; type: functional, cell-based
MC3T3-E1 [19] = test: Induction of osteoblast differentiation in mouse MC3T3-E1 cells assessed as increase in ALP activity at 5 uM after 4 days BCIP/NBT liquid substrate based assay; type: functional, cell-based
MC3T3-E1 [20] = test: Induction of mineralization in mouse MC3T3-E1 cells at 5 uM after 14 days by alizarin red S staining based assay; type: functional, cell-based
MC3T3-E1 [21] = test: Induction of osteoblast differentiation in mouse MC3T3-E1 cells assessed as increase in ALP activity at 5 uM after 4 days in presence of ascorbic acid/beta-GP BCIP/NBT liquid substrate based assay; type: functional, cell-based
MC3T3-E1 [22] = test: Induction of mineralization in mouse MC3T3-E1 cells at 5 uM after 14 days in presence of ascorbic acid/beta-GP by alizarin red S staining based assay; type: functional, cell-based
MC3T3-E1 [23] = test: Increase in Runx2 (unknown origin) promoter activity expressed in mouse MC3T3-E1 cells at 5 uM after 48 hrs by luciferase reporter gene assay; type: cell-based
[24] = Increase in Runx2 (unknown origin) promoter activity expressed in mouse C3H10T1/2 cells at 5 uM after 48 hrs by luciferase reporter gene assay; type: cell-based
MC3T3-E1 [25] = test: Induction of osteoblast differentiation in Runx2 knockdown mouse MC3T3-E1 cells assessed as increase in ALP activity at 5 uM after 4 days BCIP/NBT liquid substrate based assay; type: functional, cell-based

With `C=C1[C@@H]2[C@H]3OC(=O)C(=C)[C@@H]3CCC(=C)[C@@H]2C[C@@H]1O` [ZALUZANIN C] the Activity (C3H 10T1/2 [1]) was “Non-Toxic”, the Activity (MC3T3-E1 [2]) was “Non-Toxic” and the Activity (C3H 10T1/2 [3]) was “Toxic”. The Activity (MC3T3-E1 [4]) was “Toxic”, the Activity (C3H 10T1/2 [5]) was “Active” and the Activity (C3H 10T1/2 [6]) was “Active”. For the same compound, the Activity (C3H 10T1/2 [7]) was “Active”, the Activity (C3H 10T1/2 [8]) was “Active” and the Activity (C3H 10T1/2 [9]) was “Active”. The Activity (C3H 10T1/2 [10]) was “Active”, the Activity (MC3T3-E1 [11]) was “Active” and the Activity (MC3T3-E1 [12]) was “Active”. For the same compound, the Activity (MC3T3-E1 [13]) was “Active”, the Activity (MC3T3-E1 [14]) was “Active” and the Activity (MC3T3-E1 [15]) was “Active”. For the same compound, the Activity (MC3T3-E1 [16]) was “Active”, the Activity (C3H 10T1/2 [17]) was “Active” and the Activity (MC3T3-E1 [18]) was “Active”. The Activity (MC3T3-E1 [19]) was “Active”, the Activity (MC3T3-E1 [20]) was “Active” and the Activity (MC3T3-E1 [21]) was “Active”. For the same compound, the Activity (MC3T3-E1 [22]) was “Active”, the Activity (MC3T3-E1 [23]) was “Active” and the Activity [24] was “Active”. For the same compound, the Activity (MC3T3-E1 [25]) was “inactive”.

Reference: ChEMBL document CHEMBL4177602, “Zaluzanin C (ZC) induces osteoblast differentiation through regulating of osteogenic genes expressions in early stage of differentiation” (Bioorg Med Chem Lett, 2017)
